From patent US20210330611A1, “THERAPY FOR NEUROLOGICAL DISEASES/DISORDERS” (priority 2020, published 2021) come the findings set out here.

Data set [1] can be described thus: in vitro. Particulars: rat.
The subject of data set [2] is fibrin-induced microglia activation. The data set is described as follows: Image-based assay of fibrin-induced microglia activation (HTS and dose response). It counts as cell-based, rat. The following applies: for pIC50 / IC50 / inhibition at 10 µM: Rattus norvegicus, Microglia; for pIC50: read-out: Fibrin IC50; for IC50: read-out: Fibrin IC50 (uM) (Suppl. Table 7); for inhibition at 10 µM: primary microglia HTS, fibrin stimulation, increased cell size (>800 μm^2) as marker of activation, read-out: Fibrin % inhibition.

The nature of data set [3]: in vitro. The following applies: rat, Cell Toxicity IC50 (uM) [cFib assay].
For data set [4], the system named is primary rat microglia. The data set is described as follows: Cell toxicity (dead cells, size <150 μm2) in coated fibrin (cFib) assay.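 As to Fibrin % cell toxicity: share of dead cells sized under 150 µm2 at 10 µM in fibrin-stimulated microglia HTS.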 The following applies: primary microglia HTS, fibrin stimulation; decreased size (<150 μm^2) as marker of toxicity.
For data set [5], the system named is LPS-induced microglia activation. The data set is described as follows: Image-based assay of LPS-induced microglia activation (HTS and dose response). In kind it is cell-based, rat. The following applies: Rattus norvegicus, Microglia; for pIC50: read-out: LPS IC50; for inhibition at 10 µM: primary microglia HTS, LPS stimulation, increased cell size (>800 μm^2) as marker of activation, read-out: LPS % inhibition; for IC50: read-out: LPS IC50 (uM) (Suppl. Table 7).

Data set [6] deals with primary rat microglia. The data set is described as follows: Cell toxicity (dead cells, size <150 μm2) in LPS assay. The following applies: for LPS % cell toxicity: primary microglia HTS, LPS stimulation, decreased size (<150 μm^2) as marker of toxicity; for IC50: read-out: Cell Toxicity IC50 (uM) [LPS assay], LPS assay.
Data set [7] relates to fibrin- and LPS-induced microglia activation. The data set is described as follows: cells. In kind it is cell-based, rat. The following applies: for inhibition at 10 µM: Rattus norvegicus.
The mark [8] stands for this setting: 48 h, Table 1, dose response 0.001-20 μM, triplicates, primary rat microglia, 48 h.
Setting [9] is: dose response, fibrin-induced microglia activation.
[10] abbreviates: fibrin-induced microglia activation, dose response.
Setting [11] is: LPS-induced microglia activation, dose response.
Where [12] appears, read: dose response, LPS-induced microglia activation.
Setting [13] is: HTS of 1907 compounds, quadrant by fibrin and LPS inhibition.
Setting [14] is: Microglia, HTS hit classification, read-out: Hit.
The mark [15] stands for this setting: hit classification in microglia HTS, read-out: Cherry-picked Hit (Suppl. Table 7).
Setting [16] is: quadrant by fibrin and LPS inhibition in HTS of 1907 compounds.
[17] abbreviates: Microglia, Table 3, read-out: Cherry-picked Hit (Suppl. Table 7).

pIC50: −log10 of the molar value. Counter-ions that a name gives are not always drawn. Like-named read-outs stand apart in the source and are kept apart here.

As usually defined, the pIC50 is the IC50 on a negative log10 scale, so that one unit is a factor of ten. As usually defined, the IC50 is the concentration needed to halve the response being measured. Take `Clc1ccc(C(OCCN2CCCCC2)c2ccccc2)cc1` (stereo not shown) [Cloperastine hydrochloride, reference compound]: the pIC50 is less than 4.70 in “in vitro [1]”; 5.15 in data set [2] (setting [8]); 5.15 in data set [2] (setting [9]); 5.05 in data set [5] (setting [8]); 5.05 in data set [5] (setting [12]). Further, the results for the IC50 (in data set [2] (setting [10]); in the data set “in vitro [3]” (cFib assay); in data set [5] (setting [11])) were 7 µM, more than 20 µM and 9 µM, respectively. In addition, the inhibition at 10 µM in data set [2] is 64%; in data set [5] (48 h), 44%; in data set [7] (setting [14]), more than 50%; in data set [7] (setting [15]), more than 50%. Further, in the data set with primary rat microglia [4], the “Fibrin % cell toxicity” value was determined as 2%. Moreover, the “LPS % cell toxicity” value with primary rat microglia [6] came to 0%. Also, the “Quadrant (FIG. 5b)” value in data set [7] (setting [13]) is recorded as “Q3”; in data set [7] (Table 1, screen at 10 μM) it was “Q3”; in data set [7] (setting [16]), “Q3”.
With `CC(=O)OCC(=O)[C@@]12N=C(C)O[C@@H]1C[C@H]1[C@@H]3CCC4=CC(=O)C=C[C@]4(C)[C@H]3[C@@H](O)C[C@@]12C` [Deflazacort, reference compound], the pIC50 in the data set “in vitro [1]” is less than 4.70; in data set [2] (setting [8]), more than 9.00; in data set [2] (setting [9]), more than 9.00; in data set [5] (setting [8]), 7.40; in data set [5] (setting [12]), 7.40. Besides, the “Fibrin Selectivity” value is listed as 42 in data set [2] and 42 in data set [2] (fibrin vs LPS, Table 6). Further, the “Fibrin Selectivity (LOG10)” value in data set [2] was determined as 1.63; in data set [2] (fibrin vs LPS, LOG10, Table 6), 1.63. For the same molecule, the IC50 in data set [2] (Table 3) is less than 0.001 µM; in data set [2] (Table 6), less than 0.001 µM; in data set [2] (setting [10]) it was less than 0.001 µM; in “in vitro [3]” (Table 3) it was 20 µM; in “in vitro [3]” (cFib assay) it was 20 µM; in “in vitro [3]” (cFib assay, Table 6) it was not below 20 µM. Moreover, the IC50 in data set [5] (setting [11]) was 0.04 µM; in data set [5] (Table 3) it was 0.04 µM; in data set [5] (Table 6) it was 0.04 µM; in the data set with primary rat microglia [6], more than 20 µM; in the data set on primary rat microglia [6] (Table 6), more than 20 µM. Also, the inhibition at 10 µM in data set [2] is 111%; in data set [5] (48 h), 105%; in data set [7] (setting [17]), more than 50%; in data set [7] (setting [14]), more than 50%. Also, the “Fibrin % cell toxicity” value in the data set with primary rat microglia [4] came out at 2%. In the data set on primary rat microglia [6], the “LPS % cell toxicity” value is listed as 4%. In addition, the “Quadrant (FIG. 5b)” value in data set [7] (setting [13]) is listed as “Q2”; in data set [7] (Table 1, screen at 10 μM), “Q2”; in data set [7] (Table 3, screen at 10 μM), “Q2”; in data set [7] (microglia HTS, Table 6) it was “Q2”; in data set [7] (setting [16]) it was “Q2”.
As for `CN(C)[C@@H]1C(O)=C(C(N)=O)C(=O)[C@@]2(O)C(O)=C3C(=O)c4c(O)ccc(Cl)c4[C@@H](O)[C@H]3C[C@@H]12` [Demeclocycline hydrochloride, reference compound], the pIC50 in “in vitro [1]” is less than 4.70; in data set [2] (setting [8]) it was 5.22; in data set [2] (setting [9]), 5.22; in data set [5] (setting [8]), 4.82; in data set [5] (setting [12]), 4.82. In data set [2], the “Fibrin Selectivity” value stood at 2. Besides, the “Fibrin Selectivity (LOG10)” value in data set [2] is reported as 0.38. Further, the IC50 in data set [2] (Table 3) is 6 µM; in data set [2] (setting [10]), 6 µM; in the data set “in vitro [3]” (Table 3), more than 20 µM; in “in vitro [3]” (cFib assay), more than 20 µM; in data set [5] (setting [11]), 15 µM; in data set [5] (Table 3), 15 µM. The concentration for half-maximal inhibition (IC50) with primary rat microglia [6] is more than 20 µM. Besides, the inhibition at 10 µM in data set [2] is 75%; in data set [5] (48 h), 31%; in data set [7] (setting [17]), more than 50%; in data set [7] (setting [14]), more than 50%. Further, the “Fibrin % cell toxicity” value in the data set with primary rat microglia [4] turned out to be 1%. The “LPS % cell toxicity” value in the data set on primary rat microglia [6] worked out at 1%. The “Quadrant (FIG. 5b)” value in data set [7] (setting [13]) is given as “Q3”; in data set [7] (Table 1, screen at 10 μM), “Q3”; in data set [7] (Table 3, screen at 10 μM) it was “Q3”; in data set [7] (setting [16]) it was “Q3”.
As to `CC(=O)OCC(=O)[C@H]1CC[C@H]2[C@@H]3CCC4=CC(=O)CC[C@]4(C)[C@H]3CC[C@]12C` [Desoxycorticosterone acetate, reference compound], the pIC50 in “in vitro [1]” was less than 4.70; in data set [2] (setting [8]), 6.30; in data set [2] (setting [9]), 6.30; in data set [5] (setting [8]), 5.30; in data set [5] (setting [12]), 5.30. For the same molecule, the “Fibrin Selectivity” value in data set [2] stood at 10. The “Fibrin Selectivity (LOG10)” value in data set [2] worked out at 0.98. Besides, the IC50 in data set [2] (Table 3) is 0.5 µM; in data set [2] (setting [10]) it was 0.5 µM; in the data set “in vitro [3]” (Table 3), more than 20 µM; in “in vitro [3]” (cFib assay), more than 20 µM; in data set [5] (setting [11]), 5 µM; in data set [5] (Table 3), 5 µM. In the data set on primary rat microglia [6], the IC50 was more than 20 µM. The inhibition at 10 µM was 83% in data set [2], 47% in data set [5] (48 h), more than 50% in data set [7] (setting [17]) and more than 50% in data set [7] (setting [14]). Further, in the data set with primary rat microglia [4], the “Fibrin % cell toxicity” value is 1%. In the data set on primary rat microglia [6], the “LPS % cell toxicity” value amounted to 1%. The “Quadrant (FIG. 5b)” value in data set [7] (setting [13]) is “Q3”; in data set [7] (Table 1, screen at 10 μM), “Q3”; in data set [7] (Table 3, screen at 10 μM) it was “Q3”; in data set [7] (setting [16]) it was “Q3”.
For `CC(=O)OCC(=O)[C@@]1(O)CC[C@H]2[C@@H]3CCC4=CC(=O)C=C[C@]4(C)[C@@]3(Cl)[C@@H](Cl)C[C@@]21C` [Dichlorisone acetate, reference compound], the pIC50 in “in vitro [1]” was less than 4.70; in data set [2] (setting [8]), 7.52; in data set [2] (setting [9]) it was 7.52; in data set [5] (setting [8]), 5.40; in data set [5] (setting [12]), 5.40. For the same molecule, in data set [2], the “Fibrin Selectivity” value was 169. The “Fibrin Selectivity (LOG10)” value in data set [2] is listed as 2.23. Besides, the IC50 in data set [2] (Table 3) is 0.03 µM; in data set [2] (Table 6), 0.03 µM; in data set [2] (setting [10]) it was 0.03 µM; in “in vitro [3]” (Table 3), more than 20 µM; in the data set “in vitro [3]” (cFib assay), more than 20 µM; in the data set “in vitro [3]” (cFib assay, Table 6), more than 20 µM. Besides, the IC50 in data set [5] (setting [11]) is 4 µM; in data set [5] (Table 3) it was 4 µM; in data set [5] (Table 6), 4 µM; in the data set on primary rat microglia [6], more than 20 µM; with primary rat microglia [6] (Table 6), more than 20 µM. The inhibition at 10 µM in data set [2] is 108%; in data set [5] (48 h), 74%; in data set [7] (setting [17]) it was more than 50%; in data set [7] (setting [14]), more than 50%. The “Fibrin % cell toxicity” value in the data set on primary rat microglia [4] is given as 3%. Besides, in the data set with primary rat microglia [6], the “LPS % cell toxicity” value is listed as 1%. Also, the “Quadrant (FIG. 5b)” value in data set [7] (setting [13]) is “Q2”; in data set [7] (Table 1, screen at 10 μM) it was “Q2”; in data set [7] (Table 3, screen at 10 μM) it was “Q2”; in data set [7] (microglia HTS, Table 6), “Q2”; in data set [7] (setting [16]) it was “Q2”.
With `COC(=O)Nc1nc2ccc(Sc3ccccc3)cc2[nH]1` [Fenbendazole, reference compound], the pIC50 is less than 4.70 in “in vitro [1]”; 5.52 in data set [2] (setting [8]); 5.52 in data set [2] (setting [9]); 5.40 in data set [5] (setting [8]); 5.40 in data set [5] (setting [12]). Further, the half-inhibitory concentration (IC50) was 3 µM in data set [2] (setting [10]), more than 20 µM in “in vitro [3]” (cFib assay) and 4 µM in data set [5] (setting [11]). The inhibition at 10 µM in data set [2] is 75%; in data set [5] (48 h), 10%; in data set [7] (setting [14]) it was more than 50%; in data set [7] (setting [15]), more than 50%. In addition, in the data set with primary rat microglia [4], the “Fibrin % cell toxicity” value was found to be 1%. Further, the “LPS % cell toxicity” value in the data set with primary rat microglia [6] was found to be 1%. In addition, the “Quadrant (FIG. 5b)” value in data set [7] (setting [13]) is listed as “Q3”; in data set [7] (Table 1, screen at 10 μM), “Q3”; in data set [7] (setting [16]), “Q3”.
